In patent US20190031618A1, “BENZIMIDAZOLE DERIVATIVES USEFUL AS CB-1 INVERSE AGONISTS” (Janssen Pharmaceutica NV, priority 2015, published 2019):

What was measured:
[1] = target: Human CB1R (Cannabinoid receptor 1) (Homo sapiens, UniProt P21554); test: CB-1 in vitro cAMP (HTRF) assay; format: cell-based; settings: HEK cells, cAMP HTRF, 250 nM forskolin; mean where tested more than once; read-out: CB1 HEK_cAMP EC50
Outline: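 Intracellular cAMP from HTRF ratio (d2-cAMP vs Eu-cryptate anti-cAMP), converted to nM via per-plate standards, in stable human CB1R HEK-293 cells.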

[2] = target: Human CB2R (Cannabinoid receptor 2) (Homo sapiens, UniProt P34972); test: CB-2 in vitro cAMP (HTRF) assay; format: cell-based; settings: HEK cells, cAMP HTRF, 250 nM forskolin; mean where tested more than once; read-out: CB2 HEK_cAMP EC50
Sequence of Human CB2R (Cannabinoid receptor 2) (P34972 whole entry): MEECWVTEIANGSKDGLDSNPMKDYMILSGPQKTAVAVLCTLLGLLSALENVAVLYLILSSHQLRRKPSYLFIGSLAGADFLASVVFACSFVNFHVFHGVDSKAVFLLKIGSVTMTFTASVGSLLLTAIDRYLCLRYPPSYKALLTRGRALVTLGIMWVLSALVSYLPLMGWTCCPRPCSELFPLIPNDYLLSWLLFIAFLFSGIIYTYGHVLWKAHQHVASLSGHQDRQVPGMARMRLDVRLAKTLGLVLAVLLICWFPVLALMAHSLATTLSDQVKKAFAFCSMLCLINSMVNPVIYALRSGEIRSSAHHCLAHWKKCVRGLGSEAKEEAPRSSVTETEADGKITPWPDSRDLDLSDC
Outline: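 Competitive HTRF read-out (d2-labelled cAMP vs cryptate antibody) quantifies cAMP in stably transfected HEK-293 cells, seeded the day before at 4E5 cells/mL. Stimulation buffer: HBSS, 5 mM HEPES, 0.1% BSA, 0.5 mM IBMX; forskolin prepared at 1.5 μM in buffer; compounds serially diluted 1/3 in DMSO.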

Sequence of Human CB1R (Cannabinoid receptor 1) (P21554 whole entry): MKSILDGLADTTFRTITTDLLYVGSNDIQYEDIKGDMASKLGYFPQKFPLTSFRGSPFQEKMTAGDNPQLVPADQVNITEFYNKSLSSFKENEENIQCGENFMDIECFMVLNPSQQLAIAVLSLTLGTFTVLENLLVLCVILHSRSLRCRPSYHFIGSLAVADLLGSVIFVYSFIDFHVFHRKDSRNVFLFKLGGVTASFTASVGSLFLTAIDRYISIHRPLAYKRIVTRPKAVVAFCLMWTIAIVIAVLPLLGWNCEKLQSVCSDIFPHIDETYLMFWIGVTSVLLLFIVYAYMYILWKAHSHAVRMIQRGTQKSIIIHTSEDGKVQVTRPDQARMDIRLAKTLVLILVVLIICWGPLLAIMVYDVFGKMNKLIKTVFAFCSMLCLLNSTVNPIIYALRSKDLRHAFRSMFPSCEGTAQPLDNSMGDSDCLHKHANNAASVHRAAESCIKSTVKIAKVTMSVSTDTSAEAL

Row | SMILES | EC50 [1] [µM] | EC50 [2] [µM]
1 | O=S(=O)(N1CCC(n2c(C3CC3)nc3ccc(C(c4ccc(Cl)cc4)c4ccc5c(c4)OCO5)cc32)CC1)C(F)(F)F (centres unmarked) [Example 321] | 0.0062 | 4.03
2 | O=S(=O)(N1CCC(Cn2cnc3ccc(C(c4ccc(Cl)cc4)c4nccs4)cc32)CC1)C(F)(F)F (centres unmarked) [Example 322] | 0.621 | > 10
3 | CCc1nc2ccc(C(c3ccc(Cl)cc3)c3nccs3)cc2n1CC1CCN(S(=O)(=O)C(F)(F)F)CC1 (centres unmarked) [Example 323] | 0.0165 | > 10
4 | O=S(=O)(N1CCC(Cn2c(C3CC3)nc3ccc(C(c4ccc(Cl)cc4)c4nccs4)cc32)CC1)C(F)(F)F (centres unmarked) [Example 324] | 0.0102 | 3.88
5 | CC(Cc1ccc(Cl)cc1)n1c(C(F)F)nc2ccc(C(c3ccc(Cl)cc3)c3nccs3)cc21 (centres unmarked) [Example 329] | 0.379 | > 10
6 | CCOC(=O)N1CCC(n2c(CC)nc3ccc(C(c4ccc(Cl)cc4)c4ccc(Cl)cc4)cc32)CC1 [Example 332] | 0.0147 | 4.7
7 | Clc1ccc(CCn2c(C3CC3)nc3ccc(C(c4ccc(Cl)cc4)c4nccs4)cc32)cc1 (centres unmarked) [Example 338] | 0.0597 | 4
8 | OC(c1ccc(Cl)cc1)(c1ccc2nc(CC(F)(F)F)n(CCc3cccc(Cl)c3)c2c1)c1nccs1 (centres unmarked) [Example 339] | 2.41 | > 10
9 | FC(F)(F)Cc1nc2ccc(C(c3ccc(Cl)cc3)c3nccs3)cc2n1CCc1cccc(Cl)c1 (centres unmarked) [Example 340] | 1.44 | > 10
10 | OC(c1ccc(Cl)cc1)(c1ccc2nc(C3CC3)n(C3CCc4ccccc4C3)c2c1)c1nccs1 (centres unmarked) [Example 341] | 1.33 | > 10
11 | Clc1ccc(C(c2ccc3nc(C4CC4)n(C4CCc5ccccc5C4)c3c2)c2nccs2)cc1 (centres unmarked) [Example 342] | 0.184 | > 10
12 | Cc1nc2ccc(C(c3ccc(Cl)cc3)c3nccs3)cc2n1C1Cc2ccccc2C1 (centres unmarked) [Example 361] | 2.02 | > 10
13 | Clc1ccc(C(c2ccc3nc(C4CC4)n(C4Cc5ccccc5C4)c3c2)c2nccs2)cc1 (centres unmarked) [Example 362] | 0.212 | > 10
14 | OCc1nc2ccc(C(c3ccc(Cl)cc3)c3nccs3)cc2n1-c1cccc(Cl)c1 (centres unmarked) [Example 374] | 1.12 | > 10
15 | Clc1ccc(C(c2ccc3nc(-c4ccsc4)n(-c4cccc(Cl)c4)c3c2)c2nccs2)cc1 (centres unmarked) [Example 375] | 0.755 | > 10
16 | Clc1ccc(C(c2ccc3nc(-c4ccoc4)n(-c4cccc(Cl)c4)c3c2)c2nccs2)cc1 (centres unmarked) [Example 376] | 0.441 | 0.272
17 | Clc1ccc(C(c2ccc3nc(-c4ccco4)n(-c4cccc(Cl)c4)c3c2)c2nccs2)cc1 (centres unmarked) [Example 377] | > 10 | > 10
18 | O=S(=O)(N1CCC(n2c(C3CC3)nc3ccc(C(c4ccc(Cl)cc4)c4nccs4)cc32)CC1)C(F)(F)F (centres unmarked) [Example 384] | 0.012 | > 10
19 | O=S(=O)(N1CCC(n2c(-c3ccccn3)nc3ccc(C(c4ccc(Cl)cc4)c4nccs4)cc32)CC1)C(F)(F)F (centres unmarked) [Example 385] | 0.524 | > 10
20 | Cc1nc2ccc(C(c3ccc(Cl)cc3)c3nccs3)cc2n1C1CCN(S(=O)(=O)C(F)(F)F)CC1 (centres unmarked) [Example 386] | 0.022 | > 10

Row | SMILES | EC50 [1] [µM] | EC50 [2] [µM]
21 | CCOC(=O)c1nc2ccc(C(c3ccc(Cl)cc3)c3nccs3)cc2n1C1CCN(S(=O)(=O)C(F)(F)F)CC1 (centres unmarked) [Example 387] | 0.551 | > 10
22 | O=S(=O)(N1CCC(n2c(-c3ccncc3)nc3ccc(C(c4ccc(Cl)cc4)c4nccs4)cc32)CC1)C(F)(F)F (centres unmarked) [Example 390] | 0.242 | > 10
23 | O=S(=O)(N1CCC(n2c(C3CCC3)nc3ccc(C(c4ccc(Cl)cc4)c4nccs4)cc32)CC1)C(F)(F)F (centres unmarked) [Example 391] | 0.06 | > 10
24 | O=S(=O)(N1CCC(n2c(-c3cccnc3)nc3ccc(C(c4ccc(Cl)cc4)c4nccs4)cc32)CC1)C(F)(F)F (centres unmarked) [Example 393] | 0.028 | 0.063
25 | O=S(=O)(N1CCC(n2c(-c3ccc(Cl)cc3)nc3ccc(C(c4ccc(Cl)cc4)c4nccs4)cc32)CC1)C(F)(F)F (centres unmarked) [Example 394] | 4.84 | > 10
26 | O=S(=O)(N1CCC(n2c(C3CCCC3)nc3ccc(C(c4ccc(Cl)cc4)c4nccs4)cc32)CC1)C(F)(F)F (centres unmarked) [Example 395] | 0.137 | > 10
27 | CC(C)Cc1nc2ccc(C(c3ccc(Cl)cc3)c3nccs3)cc2n1C1CCN(S(=O)(=O)C(F)(F)F)CC1 (centres unmarked) [Example 396] | 0.221 | 0.091
28 | CC(C)c1nc2ccc(C(c3ccc(Cl)cc3)c3nccs3)cc2n1C1CCN(S(=O)(=O)C(F)(F)F)CC1 (centres unmarked) [Example 397] | > 10 | > 10
29 | O=S(=O)(N1CCC(n2cnc3ccc(C(c4ccc(Cl)cc4)c4nccs4)cc32)CC1)C(F)(F)F (centres unmarked) [Example 398] | 0.021 | > 10
30 | CCCc1nc2ccc(C(c3ccc(Cl)cc3)c3nccs3)cc2n1C1CCN(S(=O)(=O)C(F)(F)F)CC1 (centres unmarked) [Example 399] | 0.163 | > 10
31 | CC(c1ccc(Cl)cc1)n1c(C2CC2)nc2ccc(C(c3ccc(Cl)cc3)c3nccs3)cc21 (centres unmarked) [Example 401] | 6.02 | > 10
32 | CC(C)c1nc2ccc(C(c3ccc(Cl)cc3)c3nccs3)cc2n1-c1cccc(Cl)c1 (centres unmarked) [Example 402] | 0.192 | > 10
33 | Clc1ccc(C(c2ccc3nc(C4CC4)n(Cc4ccccn4)c3c2)c2nccs2)cc1 (centres unmarked) [Example 403] | 0.569 | > 10
34 | Clc1ccc(C(c2ccc3nc(C4CNC4)n(CCc4cccc(Cl)c4)c3c2)c2nccs2)cc1 (centres unmarked) [Example 404] | 6.15 | > 10
35 | OC(c1ccc(Cl)cc1)(c1ccc2ncn(CCc3cccc(Cl)c3)c2c1)c1nccs1 (centres unmarked) [Example 405] | 4.49 | 3.35
36 | CC(C)(C)OC(=O)N1CC(c2nc3ccc(C(c4ccc(Cl)cc4)c4nccs4)cc3n2CCc2cccc(Cl)c2)C1 (centres unmarked) [Example 406] | 1.69 | > 10
37 | CCOC(=O)N1CCC(n2c(C(C)(C)C)nc3ccc(C(c4ccc(Cl)cc4)c4nccs4)cc32)CC1 (centres unmarked) [Example 408] | 3.15 | > 10
38 | CCc1nc2ccc(C(c3ccc(Cl)cc3)c3nccs3)cc2n1CCc1cccc(Cl)c1 (centres unmarked) [Example 409] | 0.0478 | > 10
39 | CCCc1nc2ccc(C(c3ccc(Cl)cc3)c3nccs3)cc2n1CCc1cccc(Cl)c1 (centres unmarked) [Example 410] | 0.308 | > 10
40 | CCOC(=O)N1CCC(n2c(C3CCCO3)nc3ccc(C(c4ccc(Cl)cc4)c4nccs4)cc32)CC1 (centres unmarked) [Example 411] | 0.376 | > 10

Row | SMILES | EC50 [1] [µM] | EC50 [2] [µM]
41 | CCOC(=O)N1CCC(n2c(C3CCOCC3)nc3ccc(C(c4ccc(Cl)cc4)c4nccs4)cc32)CC1 (centres unmarked) [Example 412] | 0.623 | > 10
42 | CCOC(=O)c1nc2ccc(C(c3ccc(Cl)cc3)c3nccs3)cc2n1C1CCN(C(=O)OCC)CC1 (centres unmarked) [Example 413] | 0.315 | > 10
43 | CCOC(=O)N1CCC(n2c(C3CNC3)nc3ccc(C(c4ccc(Cl)cc4)c4nccs4)cc32)CC1 (centres unmarked) [Example 414] | 1.49 | > 10
44 | CCOC(=O)N1CCC(n2c(C(F)(F)F)nc3ccc(C(c4ccc(Cl)cc4)c4nccs4)cc32)CC1 (centres unmarked) [Example 415] | > 10 | > 10
45 | CCCc1nc2ccc(C(c3ccc(Cl)cc3)c3nccs3)cc2n1C1CCN(C(=O)OCC)CC1 (centres unmarked) [Example 416] | 0.392 | > 10
46 | CCOC(=O)N1CCC(n2c(C3CN(C(=O)OC(C)(C)C)C3)nc3ccc(C(c4ccc(Cl)cc4)c4nccs4)cc32)CC1 (centres unmarked) [Example 417] | 2.54 | > 10
47 | CCOC(=O)N1CCC(n2c(-c3ccc(Cl)cc3)nc3ccc(C(c4ccc(Cl)cc4)c4nccs4)cc32)CC1 (centres unmarked) [Example 418] | 1.08 | > 10
48 | CCOC(=O)N1CCC(n2c(-c3nccs3)nc3ccc(C(c4ccc(Cl)cc4)c4nccs4)cc32)CC1 (centres unmarked) [Example 419] | 1.18 | > 10
49 | CCOC(=O)N1CCC(n2c(CC(C)C)nc3ccc(C(c4ccc(Cl)cc4)c4nccs4)cc32)CC1 (centres unmarked) [Example 420] | 0.231 | > 10
50 | CCOC(=O)N1CCC(n2c(C3CC3)nc3ccc(C(c4ccc(Cl)cc4)c4nccs4)cc32)CC1 (centres unmarked) [Example 421] | 0.112 | > 10
51 | CCOC(=O)N1CCC(n2c(Cl)nc3ccc(C(c4ccc(Cl)cc4)c4nccs4)cc32)CC1 (centres unmarked) [Example 422] | 0.598 | > 10
52 | Clc1ccc(C(c2ccc3nc(C4CC4)n(CCc4cccc(Cl)c4)c3c2)c2nccs2)cc1 (centres unmarked) [Example 423] | 0.017 | > 10
53 | FC(F)(F)c1nc2ccc(C(c3ccc(Cl)cc3)c3nccs3)cc2n1CCc1cccc(Cl)c1 (centres unmarked) [Example 424] | 2.32 | > 10
54 | CCOC(=O)c1nc2ccc(C(c3ccc(Cl)cc3)c3nccs3)cc2n1-c1cccc(Cl)c1 (centres unmarked) [Example 429] | 0.437 | > 10
55 | CCCc1nc2ccc(C(c3ccc(Cl)cc3)c3nccs3)cc2n1-c1cccc(Cl)c1 (centres unmarked) [Example 431] | 0.111 | > 10
56 | Clc1ccc(C(c2ccc3nc(C4CC4)n(-c4cccc(Cl)c4)c3c2)c2nccs2)cc1 (centres unmarked) [Example 432] | 0.0643 | > 10
57 | CC(C)Cc1nc2ccc(C(c3ccc(Cl)cc3)c3nccs3)cc2n1-c1cccc(Cl)c1 (centres unmarked) [Example 433] | > 10 | > 10
58 | CCc1nc2ccc(C(c3ccc(Cl)cc3)c3nccs3)cc2n1-c1cccc(Cl)c1 (centres unmarked) [Example 434] | 0.0227 | > 10
